The results in this text go back to patent publication US6696069B2, “Skin care cosmetic compositions containing phosphates and/or sulfates of branched alcohols and/or ethoxylates thereof” (Unilever Home & Personal Care USA, division of Conopco, Inc., priority 2000, dated 2004).

Several values for one entry are separate records, joined by “and”; a condition that tells them apart may be missing. Equal entries are not always repeated. Structures can show the parent of a compound that is named as a salt. Marks after values point to notes of the source that are not given here.

For experiment [1], the system named is Neonatal human dermal fibroblasts. The experiment can be described thus: Production of procollagen I by fibroblasts (slot blot, densitometry). It counts as cell-based. The settings on record: for Average OD (optical density) Reading / Fold increase Over Control / % Increase (+) or % decrease (−−) over control: procollagen I; for collagen synthesis by fibroblasts (result in words): text summary of Tables 1 and 5; for % Increase (+) or % decrease (−−) over control: positive control, concentration not given. Here is the method:
This example measured production of procollagen I by fibroblasts in response to treatment with various straight chain and branched alcohols alone.
Procollagen I Staining Protocol for Slot Blot
Neonatal human dermal fibroblasts were purchased from Clonetics Corp., San Diego, Calif. All materials for cell culture were purchased from Life Technologies, NY (and used in passages 5-10). Cells were seeded at a density of approximately 10,000/well in the inner 48 wells of a 96-well plate in a medium containing DMEM (Dulbecco's Modified Eagle's Medium), high-glucose supplemented with 2 mM L-glutamine, 10% fetal bovine serum, and antibiotic and antimycotic solutions. Cells were then grown to confluence for 2 days. At confluence, the medium was removed and cells were washed with serum-free DMEM, and each well dosed with 200 μl of a solution of a test compound in serum-free DMEM. Each dosing was replicated in a total of six wells. […] After 24 hours, the test compound solution or the control solution was removed and cells redosed with 100 μl of a solution of a test compound in serum-free DMEM.
Nitrocellulose membrane and 3 sheets of filter paper were soaked in TRIS buffered saline (TBS, pH 7.3.). BioRad slot blot apparatus (BioRad Labs, CA) was set up with 3 sheets filter paper on bottom, membrane on top, and tightened. […] TBS was added per well. Vacuum was used to suck TBS through membrane. The test compound solution or control was vortexed, then 100 μl was loaded per well and gravity filtered. Procollagen from the test solution was bound to the membrane at this point in the procedure. Membrane was removed from the apparatus, excess cut off, and bottom right corner notched for orientation. The membrane was placed in blocking solution (5% milk powder in Dulbecco's phosphate buffered saline) overnight at 4° C., with shaking. The membrane was then incubated for 1.5 hrs at room temperature with 1.5 mL Rat Anti-Human Procollagen Amino-Terminal Ab (Chemicon MAB1912) in TBS with 0.1% BSA (Bovine Serum Albumin) (ratio of antibody to buffer/BSA was 1:100) in a sealed bag with shaking. The membrane was then removed; washed 3 times for 5 minutes in TBS/0.1% Tween. The membrane was then incubated for 1 hour at room temperature in 2 mL of Biotinylated Anti-Rat Peroxidase-Conjugated Ab (Vector Labs) in TBS with 0.1% BSA (ratio of antibody to buffer/BSA was 1:1000) in a sealed bag with shaking. The membrane was then stained using the following solution:
12.5 mg 3-amino 9-ethyl carbazole (Sigma)
3.125 (approximately) mL DMF (N,N-dimethylformamide, from Sigma)
The membrane was stained until color developed and the reaction stopped with 2 washes for 10 minutes in tap water. The blot was scanned on a Bio-Rad GS700 Image Analysis densitometer. Percent change from control was calculated from densitometer readings as follows: [(Reading for test compound−Reading for control)/Reading for control]*100. Control has a reading of 100%. Statistical significance (p value) was calculated using student's t-test.
TGF-B is a positive control, ensuring the integrity of the assay: transforming growth factor beta is known to increase procollagen I in fibroblasts.
This example measured production of procollagen I by fibroblasts in response to treatment with various test compounds.
The experiment was conducted as described in Example 1 above. Fold increase was calculated as a ratio of densitometer reading for cells treated with a test compound over control.

Experiment [2] has as its system human sebocytes. The experiment can be described thus: Inhibition of sebocyte lipogenesis (14C-acetate incorporation). The settings on record: for lipogenesis inhibition (result in words): in combination with retinol, in comparison to either alone. It is filed as cell-based.
Where [3] appears, read: lipogenesis, 1 μM + 1 μM Retinol.
[4] abbreviates: lipogenesis, 1 μM + 10 μM Retinol.
[5] abbreviates: lipogenesis, 10 μM + 1 μM Retinol.
Where [6] appears, read: lipogenesis, 10 μM + 10 μM Retinol.

Iso-tridecyl Sulfate: the “Average OD (optical density) Reading” value in experiment [1] (Plate 1, 0.0001%) is recorded as 1.000; in experiment [1] (Plate 1, 0.001%), 1.223. Moreover, the “Fold increase Over Control” value in experiment [1] (Plate 1, 0.0001%) amounted to 1.28; in experiment [1] (Plate 1, 0.001%) it was 1.56. For the same compound, in experiment [1], the “collagen synthesis by fibroblasts (result in words)” value is given as “increased collagen production”. For the same compound, the “lipogenesis (result in words)” value in experiment [2] (alone or as a salt, Table 2) was “reduced lipogenesis production”. Also, the “lipogenesis inhibition (result in words)” value in experiment [2] was “improved lipogenesis inhibition”. The “% of Control” value was 70.6* % in experiment [2] (setting [3]); 64.4* % in experiment [2] (setting [4]); 72.5* % in experiment [2] (lipogenesis, 1 μM, alone); 56.1* % in experiment [2] (setting [5]); 47.5* % in experiment [2] (setting [6]); 58.2* % in experiment [2] (lipogenesis, 10 μM, alone). In addition, the “% of Control” value in experiment [2] (lipogenesis, 35.6 μM, alone) is on record as 63.5%; in experiment [2] (lipogenesis, 178 μM, alone), 18.1* %; in experiment [2] (lipogenesis, 356 μM, alone), 7.4* %.

On to `CC(C)CCCCCCCCCCOS(=O)(=O)O` [Iso-tridecyl Sulfate, sodium salt], for which the activity at 33.1 µM in experiment [2] (Homo sapiens, lipogenesis, 33.1 μM, alone, read-out: % of Control) stood at 54.9%. Moreover, in experiment [2] (Homo sapiens, lipogenesis, 165.5 μM, alone, read-out: % of Control), the activity at 165.5 µM came out at 14%. Moreover, the activity at 331 µM in experiment [2] (Homo sapiens, lipogenesis, 331 μM, alone, read-out: % of Control) was 5.5%.

Turning to Iso-tridecyl Phosphate (Disodium salt), the “% of Control” value came out at 90.7% in experiment [2] (lipogenesis, 1 μM, alone); 88.4% in experiment [2] (lipogenesis, 10 μM, alone); 88.3% in experiment [2] (lipogenesis, 100 μM, alone).

Turning to `CC1=C(/C=C/C(C)=C/C=C/C(C)=C/CO)C(C)(C)CCC1` [Retinol, reference compound], in experiment [2] (Homo sapiens, lipogenesis, 1 μM, alone, read-out: % of Control), the activity at 1 µM worked out at 91.8%. Besides, the activity at 10 µM in experiment [2] (Homo sapiens, lipogenesis, 10 μM, alone, read-out: % of Control) amounted to 106%. Further, the “% of Control” value in experiment [2] (lipogenesis, 1 μM, alone) was 97.4% and 93.2% and 91.5%; in experiment [2] (lipogenesis, 10 μM, alone), 106.0% and 101.8%.

With Iso-tridecyl Phosphate, the “Average OD (optical density) Reading” value is on record as 2.170 in experiment [1] (Plate 2, 0.0001%) and 1.460 in experiment [1] (Plate 2, 0.001%). Further, the “Fold increase Over Control” value is 2.17 in experiment [1] (Plate 2, 0.0001%) and 1.460 in experiment [1] (Plate 2, 0.001%). Also, the “collagen synthesis by fibroblasts (result in words)” value in experiment [1] is on record as “increased collagen production”. Also, the “lipogenesis inhibition (result in words)” value in experiment [2] is “enhanced inhibition of lipogenisis production”. Also, the “% of Control” value was 78.1* % in experiment [2] (setting [3]); 71.6* % in experiment [2] (setting [4]); 70.6* % in experiment [2] (setting [5]); 66.9* % in experiment [2] (setting [6]); 74.1* % in experiment [2] (lipogenesis, 100 μM + 1 μM Retinol); 78.2% in experiment [2] (lipogenesis, 100 μM + 10 μM Retinol).

Regarding TGF-B [reference compound], the entries for the “% Increase (+) or % decrease (−−) over control” value in experiment [1] (Experiment 1) and in experiment [1] (Experiment 2) were “+50* %” and “+140* %”, respectively. Further, the “Average OD (optical density) Reading” value is 1.348 in experiment [1] (Plate 1, 0.001%) and 1.653 in experiment [1] (Plate 2, 0.001%). The “Fold increase Over Control” value in experiment [1] (Plate 1, 0.001%) turned out to be 1.72; in experiment [1] (Plate 2, 0.001%) it was 1.65.

In the case of `O=S1(=O)OC(c2ccc(O)cc2)(c2ccc(O)cc2)c2ccccc21` [Phenol Red, reference compound], in experiment [2] (Homo sapiens, lipogenesis, 28 μM, alone, read-out: % of Control), the activity at 28 µM turned out to be 91.9%. Also, the activity at 280 µM in experiment [2] (Homo sapiens, lipogenesis, 280 μM, alone, read-out: % of Control) was determined as 58.1%. Besides, the “% of Control” value in experiment [2] (lipogenesis, 28 μM, alone) is 92.0% and 79.3% and 84.0%; in experiment [2] (lipogenesis, 280 μM, alone), 61.7* % and 70.6* %.
